Reference: patent US9738644B2, “Chemical compounds, compositions and methods for kinase modulation” (Infinity Pharmaceuticals, Inc., priority 2010, dated 2017)

Experiments:
[1] = biological target: T1, PI3K δ (Homo sapiens, UniProt O00329); test: In vitro PI3K δ inhibition assay; type: biochemical
T1 construct: purchased Upstate
Procedure: (§1) Class I PI3-Ks can be either purchased (p110α/p85α, p110β/p85α, p110δ/p85α from Upstate, and p110γ from Sigma) or expressed as previously described (Knight et al., 2004). IC50 values are measured using either a standard TLC assay for lipid kinase activity (described below) or a high-throughput membrane capture assay. Kinase reactions are performed by preparing a reaction mixture containing kinase, inhibitor (2% DMSO final concentration), buffer (25 mM HEPES, pH 7.4, 10 mM MgCl2), and freshly sonicated phosphatidylinositol (100 μg/ml). Reactions are initiated by the addition of ATP containing 10 μCi of γ-32P-ATP to a final concentration of 10 or 100 μM and allowed to proceed for 5 minutes at room temperature. For TLC analysis, reactions are then terminated by the addition of 105 μl 1N HCl followed by 160 μl CHCl3:MeOH (1:1). The biphasic mixture is vortexed, briefly centrifuged, and the organic phase is transferred to a new tube using a gel loading pipette tip precoated with CHCl3. This extract is spotted on TLC plates and developed for 3-4 hours in a 65:35 solution of n-propanol:1M acetic acid. The TLC plates are then dried, exposed to a phosphorimager screen (Storm, Amersham), and quantitated. For each compound, kinase activity is measured at 10-12 inhibitor concentrations representing two-fold dilutions from the highest concentration tested (typically, 200 μM). […] Other commercial kits or systems for assaying PI3-K activities are available. The commercially available kits or systems can be used to screen for inhibitors and/or agonists of PI3-Ks including, but not limited to, PI 3-Kinase α, β, δ, and γ. An exemplary system is PI 3-Kinase (human) HTRF™ Assay from Upstate. […] Briefly, the assay is a time resolved FRET assay that indirectly measures PIP3 product formed by the activity of a PI3-K. The kinase reaction is performed in a microtiter plate (e.g., a 384 well microtiter plate). The total reaction volume is approximately 20 μl per well. In the first step, each well receives 2 μl of test compound in 20% dimethylsulphoxide resulting in a 2% DMSO final concentration. Next, approximately 14.5 μl of a kinase/PIP2 mixture (diluted in 1× reaction buffer) is added per well for a final concentration of 0.25-0.3 μg/ml kinase and 10 μM PIP2. The plate is sealed and incubated for 15 minutes at room temperature. To start the reaction, 3.5 μl of ATP (diluted in 1× reaction buffer) is added per well for a final concentration of 10 μM ATP. The plate is sealed and incubated for 1 hour at room temperature. The reaction is stopped by adding 5 μl of Stop Solution per well and then 5 μl of Detection Mix is added per well. The plate is sealed, incubated for 1 hour at room temperature, and then read on an appropriate plate reader. Data is analyzed and IC50s are generated using GraphPad Prism 5.

[2] = biological target: T2, PI3K γ (Homo sapiens, UniProt P48736); test: In vitro PI3K γ inhibition assay; type: biochemical
T2 construct: purchased Sigma
Procedure: as §1

[3] = biological target: T3, PI3K α (Homo sapiens, UniProt P42336); test: In vitro PI3K α inhibition assay; type: biochemical
T3 construct: purchased Upstate
Procedure: (§2) Class I PI3-Ks can be either purchased (p110α/p85α, p110β/p85α, p110δ/p85α from Upstate, and p110γ from Sigma) or expressed as previously described (Knight et al., 2004). IC50 values are measured using either a standard TLC assay for lipid kinase activity (described below) or a high-throughput membrane capture assay. Kinase reactions are performed by preparing a reaction mixture containing kinase, inhibitor (2% DMSO final concentration), buffer (25 mM HEPES, pH 7.4, 10 mM MgCl2), and freshly sonicated phosphatidylinositol (100 μg/ml). Reactions are initiated by the addition of ATP containing 10 μCi of γ-32P-ATP to a final concentration of 10 or 100 μM and allowed to proceed for 5 minutes at room temperature. For TLC analysis, reactions are then terminated by the addition of 105 μl 1N HCl followed by 160 μl CHCl3:MeOH (1:1). The biphasic mixture is vortexed, briefly centrifuged, and the organic phase is transferred to a new tube using a gel loading pipette tip precoated with CHCl3. This extract is spotted on TLC plates and developed for 3-4 hours in a 65:35 solution of n-propanol:1M acetic acid. The TLC plates are then dried, exposed to a phosphorimager screen (Storm, Amersham), and quantitated. For each compound, kinase activity is measured at 10-12 inhibitor concentrations representing two-fold dilutions from the highest concentration tested (typically, 200 μM).
(§3) Other commercial kits or systems for assaying PI3-K activities are available. The commercially available kits or systems can be used to screen for inhibitors and/or agonists of PI3-Ks including, but not limited to, PI 3-Kinase α, β, δ, and γ. An exemplary system is PI 3-Kinase (human) HTRF™ Assay from Upstate. […] Briefly, the assay is a time resolved FRET assay that indirectly measures PIP3 product formed by the activity of a PI3-K. The kinase reaction is performed in a microtiter plate (e.g., a 384 well microtiter plate). The total reaction volume is approximately 20 μl per well. In the first step, each well receives 2 μl of test compound in 20% dimethylsulphoxide resulting in a 2% DMSO final concentration. Next, approximately 14.5 μl of a kinase/PIP2 mixture (diluted in 1× reaction buffer) is added per well for a final concentration of 0.25-0.3 μg/ml kinase and 10 μM PIP2. The plate is sealed and incubated for 15 minutes at room temperature. To start the reaction, 3.5 μl of ATP (diluted in 1× reaction buffer) is added per well for a final concentration of 10 μM ATP. The plate is sealed and incubated for 1 hour at room temperature. The reaction is stopped by adding 5 μl of Stop Solution per well and then 5 μl of Detection Mix is added per well. The plate is sealed, incubated for 1 hour at room temperature, and then read on an appropriate plate reader. Data is analyzed and IC50s are generated using GraphPad Prism 5.

[4] = biological target: T4, PI3K β (Homo sapiens, UniProt P42338); test: In vitro PI3K β inhibition assay; type: biochemical
T4 construct: purchased Upstate
Procedure: as §2, §3

[5] = tested on: Balb/c splenic B cells; test: B cell activation and proliferation assay (Alamar Blue); type: cell-based; details: Mus musculus, read-out: B cell proliferation EC50
Procedure: The ability of one or more subject compounds to inhibit B cell activation and proliferation is determined according to standard procedures known in the art. For example, an in vitro cellular proliferation assay is established that measures the metabolic activity of live cells. The assay is performed in a 96 well microtiter plate using Alamar Blue reduction. Balb/c splenic B cells are purified over a Ficoll-Paque™ PLUS gradient followed by magnetic cell separation using a MACS B cell Isolation Kit (Miletenyi). Cells are plated in 90 μl at 50,000 cells/well in B Cell Media (RPMI+10% FBS+Penn/Strep+50 μM bME+5 mM HEPES). A compound disclosed herein is diluted in B Cell Media and added in a 10 μl volume. Plates are incubated for 30 min at 37° C. and 5% CO2 (0.2% DMSO final concentration). A 50 μl B cell stimulation cocktail is then added containing either 10 μg/ml LPS or 5 μg/ml F(ab′)2 Donkey anti-mouse IgM plus 2 ng/ml recombinant mouse IL4 in B Cell Media. Plates are incubated for 72 hours at 37° C. and 5% CO2. A volume of 15 μL of Alamar Blue reagent is added to each well and plates are incubated for 5 hours at 37° C. and 5% CO2. Alamar Blue fluoresce is read at 560Ex/590Em, and IC50 or EC50 values are calculated using GraphPad Prism 5.

T2 sequence (P48736 whole entry): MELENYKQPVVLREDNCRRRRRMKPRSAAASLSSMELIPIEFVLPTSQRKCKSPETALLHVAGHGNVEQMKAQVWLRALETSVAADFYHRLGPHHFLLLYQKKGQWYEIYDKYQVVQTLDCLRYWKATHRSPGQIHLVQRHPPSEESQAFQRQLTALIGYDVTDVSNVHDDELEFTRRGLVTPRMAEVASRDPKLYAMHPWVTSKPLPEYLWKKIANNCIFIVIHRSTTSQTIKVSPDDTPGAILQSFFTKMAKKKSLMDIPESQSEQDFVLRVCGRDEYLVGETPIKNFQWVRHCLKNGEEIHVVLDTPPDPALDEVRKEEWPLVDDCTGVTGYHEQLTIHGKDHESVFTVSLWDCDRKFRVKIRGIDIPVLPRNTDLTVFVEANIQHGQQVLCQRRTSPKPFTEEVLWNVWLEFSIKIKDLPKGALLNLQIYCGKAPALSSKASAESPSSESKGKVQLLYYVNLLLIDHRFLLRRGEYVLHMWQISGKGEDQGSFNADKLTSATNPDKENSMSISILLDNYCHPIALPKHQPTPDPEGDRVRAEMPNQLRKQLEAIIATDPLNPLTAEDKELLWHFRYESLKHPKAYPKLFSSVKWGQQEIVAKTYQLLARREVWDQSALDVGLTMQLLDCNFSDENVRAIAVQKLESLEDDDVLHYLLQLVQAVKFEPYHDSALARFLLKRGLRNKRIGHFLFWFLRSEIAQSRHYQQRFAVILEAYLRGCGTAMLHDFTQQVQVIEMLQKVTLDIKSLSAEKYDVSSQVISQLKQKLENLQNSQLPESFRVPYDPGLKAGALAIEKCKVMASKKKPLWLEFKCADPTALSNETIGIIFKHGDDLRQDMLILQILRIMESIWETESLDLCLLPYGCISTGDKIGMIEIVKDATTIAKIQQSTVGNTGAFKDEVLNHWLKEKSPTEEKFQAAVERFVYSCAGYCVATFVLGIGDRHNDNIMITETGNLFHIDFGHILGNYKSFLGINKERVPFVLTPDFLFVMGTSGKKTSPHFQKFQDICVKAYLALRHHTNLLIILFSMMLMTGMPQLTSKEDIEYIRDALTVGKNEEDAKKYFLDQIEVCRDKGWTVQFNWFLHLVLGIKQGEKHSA
T4 sequence (P42338 whole entry): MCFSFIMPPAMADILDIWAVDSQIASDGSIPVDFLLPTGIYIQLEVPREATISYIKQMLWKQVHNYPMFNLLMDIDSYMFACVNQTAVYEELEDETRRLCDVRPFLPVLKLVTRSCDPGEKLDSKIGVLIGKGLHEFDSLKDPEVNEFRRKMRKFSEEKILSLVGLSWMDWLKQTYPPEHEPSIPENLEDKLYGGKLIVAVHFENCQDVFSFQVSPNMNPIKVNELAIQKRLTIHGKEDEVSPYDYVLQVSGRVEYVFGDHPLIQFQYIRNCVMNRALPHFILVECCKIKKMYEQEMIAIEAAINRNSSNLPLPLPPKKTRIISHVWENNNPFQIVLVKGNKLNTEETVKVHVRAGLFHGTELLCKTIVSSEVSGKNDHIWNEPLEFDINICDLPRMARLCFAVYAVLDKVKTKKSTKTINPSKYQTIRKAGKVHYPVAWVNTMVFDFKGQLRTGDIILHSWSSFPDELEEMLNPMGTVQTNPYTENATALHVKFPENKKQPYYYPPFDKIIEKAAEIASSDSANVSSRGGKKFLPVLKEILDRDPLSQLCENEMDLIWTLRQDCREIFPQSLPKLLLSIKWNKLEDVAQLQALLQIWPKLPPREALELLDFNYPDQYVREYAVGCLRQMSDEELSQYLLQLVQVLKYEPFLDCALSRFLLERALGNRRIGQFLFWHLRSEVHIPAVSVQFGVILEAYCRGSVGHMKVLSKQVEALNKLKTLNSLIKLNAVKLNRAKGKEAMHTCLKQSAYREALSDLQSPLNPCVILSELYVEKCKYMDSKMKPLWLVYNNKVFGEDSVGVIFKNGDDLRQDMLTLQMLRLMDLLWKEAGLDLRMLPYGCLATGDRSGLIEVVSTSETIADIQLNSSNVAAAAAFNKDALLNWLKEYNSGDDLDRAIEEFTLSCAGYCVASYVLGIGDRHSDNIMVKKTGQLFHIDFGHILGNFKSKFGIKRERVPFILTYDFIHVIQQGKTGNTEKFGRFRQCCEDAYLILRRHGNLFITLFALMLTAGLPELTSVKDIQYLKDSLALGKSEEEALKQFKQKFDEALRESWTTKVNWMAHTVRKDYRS
T4 sequence (P27986 whole entry partner): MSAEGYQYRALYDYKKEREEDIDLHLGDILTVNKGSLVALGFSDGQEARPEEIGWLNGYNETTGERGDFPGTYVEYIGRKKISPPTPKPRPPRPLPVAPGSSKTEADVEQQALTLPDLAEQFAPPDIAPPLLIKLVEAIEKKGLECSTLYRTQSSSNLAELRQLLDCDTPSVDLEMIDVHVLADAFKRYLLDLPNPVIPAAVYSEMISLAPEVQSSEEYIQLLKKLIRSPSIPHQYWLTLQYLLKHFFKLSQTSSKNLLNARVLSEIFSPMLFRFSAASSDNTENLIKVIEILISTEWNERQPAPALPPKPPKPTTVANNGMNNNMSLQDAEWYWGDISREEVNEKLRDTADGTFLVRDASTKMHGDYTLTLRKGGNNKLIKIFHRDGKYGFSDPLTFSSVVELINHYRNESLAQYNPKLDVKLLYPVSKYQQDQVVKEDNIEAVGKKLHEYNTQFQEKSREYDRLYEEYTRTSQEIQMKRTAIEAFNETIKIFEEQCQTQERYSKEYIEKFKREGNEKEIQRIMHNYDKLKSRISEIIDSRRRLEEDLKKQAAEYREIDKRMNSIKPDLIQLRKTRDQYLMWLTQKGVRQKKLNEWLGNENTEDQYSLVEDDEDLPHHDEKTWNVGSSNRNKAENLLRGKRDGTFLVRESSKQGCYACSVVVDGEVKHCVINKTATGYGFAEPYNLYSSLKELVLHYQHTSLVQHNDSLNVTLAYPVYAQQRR
T1 sequence (O00329 whole entry): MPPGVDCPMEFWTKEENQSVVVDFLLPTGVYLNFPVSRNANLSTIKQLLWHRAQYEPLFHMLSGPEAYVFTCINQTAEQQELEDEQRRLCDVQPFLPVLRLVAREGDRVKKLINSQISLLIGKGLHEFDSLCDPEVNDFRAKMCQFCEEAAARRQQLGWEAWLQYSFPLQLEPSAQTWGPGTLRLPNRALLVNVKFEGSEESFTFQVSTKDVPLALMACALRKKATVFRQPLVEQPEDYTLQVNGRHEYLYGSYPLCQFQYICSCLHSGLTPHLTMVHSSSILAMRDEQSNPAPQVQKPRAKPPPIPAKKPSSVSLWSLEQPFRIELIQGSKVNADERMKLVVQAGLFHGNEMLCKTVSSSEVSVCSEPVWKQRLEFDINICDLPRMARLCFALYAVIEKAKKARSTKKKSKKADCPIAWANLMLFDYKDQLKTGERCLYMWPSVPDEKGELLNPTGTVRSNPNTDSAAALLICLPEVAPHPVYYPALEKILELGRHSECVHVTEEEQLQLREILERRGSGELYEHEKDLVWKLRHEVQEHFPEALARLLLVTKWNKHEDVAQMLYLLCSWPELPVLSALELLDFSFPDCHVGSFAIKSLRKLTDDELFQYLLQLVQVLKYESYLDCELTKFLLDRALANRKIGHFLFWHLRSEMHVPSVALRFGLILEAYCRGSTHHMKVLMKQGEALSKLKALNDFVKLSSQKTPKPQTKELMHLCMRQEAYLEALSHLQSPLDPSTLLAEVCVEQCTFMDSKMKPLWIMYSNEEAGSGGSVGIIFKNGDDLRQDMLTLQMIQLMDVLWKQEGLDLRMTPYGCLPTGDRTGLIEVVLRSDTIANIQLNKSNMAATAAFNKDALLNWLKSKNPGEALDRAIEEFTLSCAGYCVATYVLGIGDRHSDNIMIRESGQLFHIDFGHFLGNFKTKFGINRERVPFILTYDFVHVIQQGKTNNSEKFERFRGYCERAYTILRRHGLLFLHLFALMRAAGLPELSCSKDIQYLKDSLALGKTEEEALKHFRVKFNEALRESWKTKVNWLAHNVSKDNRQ
T1 sequence (P27986 whole entry partner): as the sequence (P27986 whole entry partner) above
T3 sequence (P42336 whole entry): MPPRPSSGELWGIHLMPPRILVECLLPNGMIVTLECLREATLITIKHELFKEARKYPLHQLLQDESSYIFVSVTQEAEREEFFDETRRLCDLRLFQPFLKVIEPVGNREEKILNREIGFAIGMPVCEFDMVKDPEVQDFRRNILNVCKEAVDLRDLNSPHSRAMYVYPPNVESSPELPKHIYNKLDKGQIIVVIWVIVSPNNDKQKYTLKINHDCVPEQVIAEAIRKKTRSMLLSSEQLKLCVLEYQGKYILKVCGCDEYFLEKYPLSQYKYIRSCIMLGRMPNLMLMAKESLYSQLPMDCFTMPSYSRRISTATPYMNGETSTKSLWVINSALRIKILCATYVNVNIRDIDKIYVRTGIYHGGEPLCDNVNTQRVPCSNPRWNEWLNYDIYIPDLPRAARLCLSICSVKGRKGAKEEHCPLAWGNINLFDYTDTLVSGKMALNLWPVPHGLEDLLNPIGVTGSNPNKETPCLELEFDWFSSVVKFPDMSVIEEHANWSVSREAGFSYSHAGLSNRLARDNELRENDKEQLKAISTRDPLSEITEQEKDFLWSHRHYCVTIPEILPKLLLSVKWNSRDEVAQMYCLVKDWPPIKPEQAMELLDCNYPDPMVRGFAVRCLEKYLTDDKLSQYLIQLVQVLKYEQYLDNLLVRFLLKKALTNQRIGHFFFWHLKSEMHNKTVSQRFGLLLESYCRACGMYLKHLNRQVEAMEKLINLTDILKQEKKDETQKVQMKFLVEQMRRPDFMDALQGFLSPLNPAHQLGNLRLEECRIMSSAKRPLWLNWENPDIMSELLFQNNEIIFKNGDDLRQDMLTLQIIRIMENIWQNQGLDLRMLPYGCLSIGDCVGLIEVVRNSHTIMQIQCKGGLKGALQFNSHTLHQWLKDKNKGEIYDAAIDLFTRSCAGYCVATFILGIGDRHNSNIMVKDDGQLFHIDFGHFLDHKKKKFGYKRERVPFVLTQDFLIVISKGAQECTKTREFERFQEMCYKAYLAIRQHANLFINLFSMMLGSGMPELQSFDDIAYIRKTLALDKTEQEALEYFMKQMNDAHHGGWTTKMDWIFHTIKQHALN
T3 sequence (P27986 whole entry partner): as the sequence (P27986 whole entry partner) above

SMILES: C[C@@H](Nc1ncnc2[nH]cnc12)c1cc2cccc(N3CCOCC3)c2c(=O)n1-c1ccccc1 (stereo in doubt) [Compound 39]
- IC50 [1]: < 1000 nM
- IC50 [2]: < 1000 nM
- IC50 [3]: > 10000 nM
- IC50 [4]: > 10000 nM

SMILES: C[C@@H](Nc1ncnc2[nH]cnc12)c1cc2cccc(NC3CCOCC3)c2c(=O)n1-c1ccccc1 (stereo in doubt) [Compound 40]
- IC50 [1]: < 1000 nM
- IC50 [2]: < 10000 nM
- IC50 [3]: > 10000 nM
- IC50 [4]: > 10000 nM

SMILES: C[C@H](Nc1ncnc2[nH]cnc12)c1cc2cccc(N3CCCC3)c2c(=O)n1-c1ccccc1 [Compound 4, (S)-3-(1-((9H-purin-6-yl)amino)ethyl)-2-phenyl-8-(pyrrolidin-1-yl)isoquinolin-1 (2H)-one]
- IC50 [1]: < 10000 nM
- IC50 [2]: < 10000 nM
- EC50 [5]: < 1 µM

SMILES: C[C@H](Nc1ncnc2[nH]cnc12)c1cc2cccc(N3CCN(C)CC3)c2c(=O)n1-c1ccccc1 [Compound 5, (S)-3-(1-((9H-purin-6-yl)amino)ethyl)-8-(4-methylpiperazin-1-yl)-2-phenylisoquinolin-1(2H)-one]
- EC50 [5]: < 0.1 µM

SMILES: Cc1ccc(-c2cccc3cc([C@H](C)Nc4ncnc5[nH]cnc45)n(-c4ccccc4)c(=O)c23)cn1 [Compound 27]
- IC50 [3]: < 10000 nM
- EC50 [5]: < 0.1 µM

SMILES: C[C@H](Nc1ncnc2[nH]cnc12)c1cc2cccc(-n3cccn3)c2c(=O)n1-c1ccccc1 [Compound 29]
- IC50 [2]: < 10000 nM
- EC50 [5]: < 1 µM

SMILES: Cc1cnn(-c2cccc3cc([C@H](C)Nc4ncnc5[nH]cnc45)n(-c4ccccc4)c(=O)c23)c1 [Compound 30]
- IC50 [2]: < 10000 nM
- EC50 [5]: < 1 µM

SMILES: Cc1cn(-c2cccc3cc([C@H](C)Nc4ncnc5[nH]cnc45)n(-c4ccccc4)c(=O)c23)cn1 [Compound 31]
- IC50 [2]: < 10000 nM
- EC50 [5]: < 0.1 µM

SMILES: C[C@H](Nc1ncnc(N)n1)c1cc2cccc(-c3cnn(C)c3)c2c(=O)n1-c1ccccc1 [Compound 33, 3-((S)-1-(4-amino-1,3,5-triazin-2-ylamino)ethyl)-8-(1-methyl-1H-pyrazol-4-yl)-2-phenylisoquinolin-1(2H)-one]
- IC50 [2]: < 10000 nM
- EC50 [5]: < 0.1 µM

SMILES: Cc1ccc(-c2cccc3cc([C@H](C)Nc4ncnc(N)n4)n(-c4ccccc4)c(=O)c23)cn1 [Compound 34]
- IC50 [2]: < 10000 nM
- EC50 [5]: < 1 µM

SMILES: C[C@H](Nc1nc(N)nc2[nH]cnc12)c1cc2cccc(-c3cnn(C)c3)c2c(=O)n1-c1ccccc1 [Compound 36]
- IC50 [4]: < 10000 nM
- EC50 [5]: < 0.1 µM

SMILES: Cc1ccc(-c2cccc3cc([C@H](C)Nc4nc(N)nc5[nH]cnc45)n(-c4ccccc4)c(=O)c23)cn1 [Compound 37]
- IC50 [4]: < 10000 nM
- EC50 [5]: < 0.1 µM

SMILES: C[C@H](Nc1nc(N)nc2[nH]cnc12)c1cc2cccc(-c3cccnc3)c2c(=O)n1-c1ccccc1 [Compound 38]
- IC50 [4]: < 10000 nM

SMILES: Cc1cc(-c2cccc3cc([C@H](C)Nc4ncnc5[nH]cnc45)n(-c4ccccc4)c(=O)c23)ccn1 [Compound 41]
- IC50 [4]: < 10000 nM
- EC50 [5]: < 0.1 µM

SMILES: C[C@H](Nc1ncnc2[nH]cnc12)c1cc2cccc(-c3cnn(C)c3)c2c(=O)n1-c1cccc(F)c1 [Compound 45]
- IC50 [3]: < 10000 nM
- EC50 [5]: < 0.1 µM

SMILES: C[C@H](Nc1ncnc2[nH]cnc12)c1cc2cccc(-c3cccnc3)c2c(=O)[nH]1 [Compound 49]
- EC50 [5]: < 0.1 µM

SMILES: C[C@H](Nc1ncnc2[nH]cnc12)c1cc2cccc(-c3cnn(C)c3)c2c(=O)[nH]1 [Compound 50]
- IC50 [1]: < 10000 nM

SMILES: C[C@H](Nc1ncnn2ccnc12)c1cc2cccc(-c3cnn(C)c3)c2c(=O)n1-c1ccccc1 [Compound 52]
- IC50 [3]: < 10000 nM
- EC50 [5]: < 0.1 µM

SMILES: C[C@H](Nc1ncnn2cncc12)c1cc2cccc(-c3cnn(C)c3)c2c(=O)n1-c1ccccc1 [Compound 54]
- IC50 [1]: < 10000 nM

SMILES: C[C@H](Nc1ncnc2[nH]cc(C#N)c12)c1cc2cccc(-c3cnn(C)c3)c2c(=O)n1-c1ccccc1 [Compound 56]
- IC50 [4]: < 10000 nM
- EC50 [5]: < 0.1 µM

SMILES: C[C@H](Nc1ncnc2[nH]cc(C(N)=O)c12)c1cc2cccc(-c3cnn(C)c3)c2c(=O)n1-c1ccccc1 [Compound 58]
- IC50 [3]: < 10000 nM
- IC50 [4]: < 10000 nM

SMILES: C[C@H](Nc1ncnc2[nH]cc(F)c12)c1cc2cccc(-c3cnn(C)c3)c2c(=O)n1C1CC1 [Compound 62]
- IC50 [3]: < 10000 nM
- IC50 [4]: < 10000 nM
- EC50 [5]: < 0.1 µM

SMILES: C[C@H](Nc1nc(N)ncc1C(F)(F)F)c1cc2cccc(-c3cnn(C)c3)c2c(=O)n1C1CC1 [Compound 67]
- EC50 [5]: < 0.1 µM

SMILES: C[C@H](Nc1nc(N)ncc1C(F)(F)F)c1cc2cccc(-c3cnn(C)c3)c2c(=O)n1-c1ccccc1 [Compound 68]
- EC50 [5]: < 0.1 µM

SMILES: C[C@H](Nc1nc(N)ncc1C#N)c1cc2cccc(-c3cnn(C)c3)c2c(=O)n1C1CC1 [Compound 72]
- IC50 [3]: < 10000 nM

SMILES: C[C@H](Nc1ncnc(N)c1C#N)c1cc2cccc(-c3cnn(C)c3)c2c(=O)n1-c1ccccc1 [Compound 73]
- IC50 [3]: < 10000 nM

SMILES: COc1ncc(-c2cccc3cc([C@H](C)Nc4ncnc5[nH]cnc45)n(-c4ccccc4)c(=O)c23)cn1 [Compound 76]
- IC50 [2]: < 10000 nM
- IC50 [3]: < 10000 nM
